Results published in ChEMBL document CHEMBL5154876, “Design, synthesis and promising anti-tumor efficacy of novel imidazo[1,2-a]pyridine derivatives as potent autotaxin allosteric inhibitors” (Eur J Med Chem, 2022).
The source made the active and inactive calls. The rule behind the calls is not given here.

Key:
RAW264.7 [1] = experiment: Inhibition of colony formation in mouse RAW264.7 cells assessed as reduction in colony count at 0.1 to 1 uM incubated for 72 hrs by crystal violet staining method; type: functional, cell-based; settings: dose 0.1-1 µM
NCI-H2228 = experiment: Cytotoxicity against human H2228 cells assessed as inhibition of cell growth incubated for 72 hrs by MTT assay; type: functional, cell-based; settings: NCI-H2228, 72 h
RAW264.7 [2] = experiment: Induction of apoptosis in mouse RAW264.7 cells assessed as necrotic cells at 0.25 uM after 48 hrs by Annexin V-FITC/PI based flow cytometric analysis (RVB=0.26%); type: functional
RAW264.7 [3] = experiment: Inhibition of colony formation in mouse RAW264.7 cells assessed as reduction in colony single area at 0.1 to 1 uM incubated for 72 hrs by crystal violet staining method; type: functional, cell-based; settings: dose 0.1-1 µM
RAW264.7 [4] = experiment: Induction of cell cycle arrest in mouse RAW264.7 cells assessed as accumulation of cells in G2 phase at 0.5 uM incubated for 24 hrs by PI/RNase staining based flow cytometric analysis (RVB = 10.90%); type: functional
RAW264.7 [5] = experiment: Induction of apoptosis in mouse RAW264.7 cells assessed as viable cells at 0.5 uM after 48 hrs by Annexin V-FITC/PI based flow cytometric analysis (RVB=94.1%); type: functional; settings: read-out: Activity
RAW264.7 [6] = experiment: Induction of apoptosis in mouse RAW264.7 cells assessed as necrotic cells at 0.1 uM after 48 hrs by Annexin V-FITC/PI based flow cytometric analysis (RVB=0.26%); type: functional
Autotaxin = Autotaxin (Homo sapiens, UniProt Q13822); experiment: Negative allosteric modulation activity against human ATX using FS-3 as substrate preincubated for 45 mins followed by substrate addition and measured every 30 mins by multi-mode microplate reader
RAW264.7 [7] = experiment: Induction of cell cycle arrest in mouse RAW264.7 cells assessed as accumulation of cells in G1 phase at 0.25 uM incubated for 24 hrs by PI/RNase staining based flow cytometric analysis (RVB = 55.06%); type: functional
RAW264.7 [8] = experiment: Induction of cell cycle arrest in mouse RAW264.7 cells assessed as accumulation of cells in G2 phase at 0.1 uM incubated for 24 hrs by PI/RNase staining based flow cytometric analysis (RVB = 10.90%); type: functional
RAW264.7 [9] = experiment: Induction of apoptosis in mouse RAW264.7 cells assessed as early apoptotic cells at 0.25 uM after 48 hrs by Annexin V-FITC/PI based flow cytometric analysis (RVB=5.57%); type: functional

For `CCc1nc2c(C)cc(-c3ccc(CN4CCN(CCO)CC4)cc3)cn2c1NC(=O)OCc1cc(Cl)cc(Cl)c1`, the inhibition (RAW264.7 [1]) was “Active”, the IC50 (NCI-H2228) was 4270 nM and the Activity (RAW264.7 [2]) was 0.28%. The inhibition (RAW264.7 [3]) was “Active”, the Activity (RAW264.7 [4]) was 74.09% and the viability at 0.5 µM (RAW264.7 [5]) was 90.4%. It also gave an Activity (RAW264.7 [6]) of 0.68%, an IC50 (Autotaxin) of 3.4 nM and an Activity (RAW264.7 [7]) of 10.61%. The Activity (RAW264.7 [8]) was 59.56% and the Activity (RAW264.7 [9]) was 6%.
